Data published in PMC10322725, “Assimilatory sulfate reduction in the marine methanogen Methanothermococcus thermolithotrophicus” (Nature Microbiology, 2023).
One block for each compound: values may come before it.

How the values were obtained:
MtPAPP [1] = molecular target: T1, MtPAPP (Methanothermococcus thermolithotrophicus, UniProt A0AA82WPC3); test: malachite green phosphate assay; type: biochemical; settings: 40 µM PAP, 50 µM MnCl2, Tris/HCl pH 7.64, 40 °C
T1 construct: recombinant in E. coli, codon-optimized gene in pET-28a(+) NdeI/BamHI, HisTrap, tag cleaved if necessary; DHH domain 1-180, linker 181-210, DHHA1 211-315
T1 sequence (A0AA82WPC3 1-315): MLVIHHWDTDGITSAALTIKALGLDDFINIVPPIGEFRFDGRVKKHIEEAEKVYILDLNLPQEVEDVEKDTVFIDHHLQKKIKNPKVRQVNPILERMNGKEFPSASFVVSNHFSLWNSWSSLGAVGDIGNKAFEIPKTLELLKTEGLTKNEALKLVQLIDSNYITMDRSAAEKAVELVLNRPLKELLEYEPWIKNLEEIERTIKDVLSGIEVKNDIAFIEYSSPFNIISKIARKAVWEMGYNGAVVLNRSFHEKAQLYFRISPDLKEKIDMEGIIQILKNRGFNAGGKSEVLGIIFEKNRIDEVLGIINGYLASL

MtPAPP [2] = molecular target: T1, MtPAPP; test: X-ray crystallography, […] Å; type: binding; settings: co-crystallized with 2 mM PAP and MnCl2; partially occupied Mn2+ in active site
[3] = molecular target: APS kinase from Methanothermococcus thermolithotrophicus (MtAPSK) (Methanothermococcus thermolithotrophicus); test: crystal structure; MtAPSK co-crystallized with 2 mM MgCl2, apo state with bound phosphate, sitting drop, 18 °C, aerobic
MtPAPSR [4] = molecular target: T2, MtPAPSR (Methanothermococcus thermolithotrophicus, UniProt A0AA82WPC4); test: X-ray crystallography, […] Å; type: binding; settings: bound in alpha subunit; crystal for phasing co-crystallized with 0.5 mM FAD
T2 construct: alpha and beta co-expressed in E. coli from pET-28a(+) NcoI/BamHI, C-terminal His-tag on alpha, anaerobic purification; alpha2beta2 heterotetramer; with Adenylylsulfate reductase subunit beta (PAPS reductase beta subunit)

[5] = molecular target: ATP sulfurylase from Methanothermococcus thermolithotrophicus (MtATPS) (Methanothermococcus thermolithotrophicus); test: SEC; size exclusion chromatography of purified MtATPS; conditions in the supplement
MtAPSK = molecular target: T3, MtAPSK (Methanothermococcus thermolithotrophicus, UniProt A0AA82WPC2); test: coupled NADH oxidation assay with MtATPS, pyrophosphatase, pyruvate kinase/lactate dehydrogenase; type: biochemical; settings: APS generated in situ by MtATPS; 2 mM ATP, Mg2+, pH 7.0, 35 °C
T3 construct: gene cysC; recombinant in E. coli, codon-optimized gene in pET-28a(+) NdeI/BamHI, HisTrap, tag cleaved if necessary; homodimer

MtATPS = molecular target: T4, MtATPS (Methanothermococcus thermolithotrophicus, UniProt A0AA82WPC1); test: coupled NADH oxidation assay with MtAPSK, pyrophosphatase, pyruvate kinase/lactate dehydrogenase; type: biochemical; settings: 2.5 mM Na2SO4, 2 mM ATP, Mg2+, pH 7.0, 35 °C; pyrophosphatase rate-limiting
T4 construct: gene sat; recombinant in E. coli, codon-optimized gene in pET-28a(+) NdeI/BamHI, HisTrap, tag cleaved if necessary; homodimer; domains 1-156, 164-314, 320-382
T4 sequence (A0AA82WPC1 4-385): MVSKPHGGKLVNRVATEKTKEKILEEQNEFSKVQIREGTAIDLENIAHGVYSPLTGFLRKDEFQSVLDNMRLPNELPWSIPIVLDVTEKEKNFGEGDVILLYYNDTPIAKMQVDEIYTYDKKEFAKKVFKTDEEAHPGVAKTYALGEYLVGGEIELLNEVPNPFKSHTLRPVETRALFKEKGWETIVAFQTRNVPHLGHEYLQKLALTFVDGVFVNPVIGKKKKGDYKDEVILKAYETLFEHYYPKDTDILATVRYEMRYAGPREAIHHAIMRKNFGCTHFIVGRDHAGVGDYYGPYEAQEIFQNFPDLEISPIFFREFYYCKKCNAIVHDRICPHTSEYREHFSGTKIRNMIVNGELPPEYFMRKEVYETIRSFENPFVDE

MtPAPSR [6] = molecular target: T2, MtPAPSR; test: coupled assay, oxidation of reduced methyl viologen at […] nm; type: biochemical; settings: PAPS generated in situ by MtATPS and MtAPSK, PAP removed by MtPAPP; HEPES pH 7.0, Mn2+, Mg2+, 45 °C, anaerobic

T2 sequence (A0AA82WPC4 entry or part of it): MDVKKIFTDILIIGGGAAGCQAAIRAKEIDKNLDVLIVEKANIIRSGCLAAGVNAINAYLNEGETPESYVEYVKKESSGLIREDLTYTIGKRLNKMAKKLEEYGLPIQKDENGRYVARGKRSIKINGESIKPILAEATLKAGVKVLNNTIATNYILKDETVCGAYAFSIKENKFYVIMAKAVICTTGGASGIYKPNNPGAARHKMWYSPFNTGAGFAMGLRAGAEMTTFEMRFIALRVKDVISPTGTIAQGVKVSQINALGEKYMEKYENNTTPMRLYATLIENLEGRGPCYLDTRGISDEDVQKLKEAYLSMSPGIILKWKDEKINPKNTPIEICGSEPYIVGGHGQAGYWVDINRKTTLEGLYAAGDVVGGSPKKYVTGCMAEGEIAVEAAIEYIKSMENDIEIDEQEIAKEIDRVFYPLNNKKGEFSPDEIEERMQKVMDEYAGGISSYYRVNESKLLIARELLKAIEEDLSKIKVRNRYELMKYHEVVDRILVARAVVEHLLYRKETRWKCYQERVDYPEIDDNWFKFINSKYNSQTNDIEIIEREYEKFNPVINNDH
T2 sequence (A0AA82WPC5 entry or part of it, further chain): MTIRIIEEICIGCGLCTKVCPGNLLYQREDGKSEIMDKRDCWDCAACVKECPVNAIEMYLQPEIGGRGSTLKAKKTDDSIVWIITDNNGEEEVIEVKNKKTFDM
T3 sequence (A0AA82WPC2 entry or part of it): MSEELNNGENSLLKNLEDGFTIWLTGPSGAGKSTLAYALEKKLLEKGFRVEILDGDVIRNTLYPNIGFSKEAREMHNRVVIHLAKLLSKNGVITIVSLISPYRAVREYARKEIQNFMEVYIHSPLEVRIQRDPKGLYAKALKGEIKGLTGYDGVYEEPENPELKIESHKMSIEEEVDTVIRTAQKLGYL

Compound: Nc1ncnc2c1ncn2[C@@H]1O[C@H](COP(=O)(O)O)[C@@H](OP(=O)(O)O)[C@H]1O [PAP]
malachite green phosphate assay (MtPAPP [1]): produced inorganic phosphate (Pi) from PAP at fast rates

Compound: Nc1ncnc2c1ncn2[C@@H]1O[C@H](COP(=O)(O)O)[C@@H](O)[C@H]1O [AMP]
X-ray crystallography, 3.1 Å (MtPAPP [2]): contained the product AMP and an ion in its active site

stoichiometry N [3]: 2
Compound: APS kinase from Methanothermococcus thermolithotrophicus (MtAPSK) (enzyme)

Compound: Cc1cc2nc3c(=O)[nH]c(=O)nc-3n(C[C@H](O)[C@H](O)[C@H](O)COP(=O)(O)OP(=O)(O)OC[C@H]3O[C@@H](n4cnc5c(N)ncnc54)[C@H](O)[C@@H]3O)c2cc1C [FAD]
X-ray crystallography, 1.45 Å (MtPAPSR [4]): the α subunit, containing the flavin adenine dinucleotide (FAD)

stoichiometry N [5]: 2
Compound: ATP sulfurylase from Methanothermococcus thermolithotrophicus (MtATPS) (enzyme)

Compound: Nc1ncnc2c1ncn2[C@@H]1O[C@H](COP(=O)(O)OP(=O)(O)OP(=O)(O)O)[C@@H](O)[C@H]1O [ATP]
coupled NADH oxidation assay with MtATPS, pyrophosphatase, pyruvate kinase/lacta (MtAPSK): determined by the production of ADP which was coupled to NADH oxidation
coupled NADH oxidation assay with MtAPSK, pyrophosphatase, pyruvate kinase/lacta (MtATPS): activity of the recombinantly expressed MtATPS and MtAPSK was tested via a coupled assay

Compound: O=S(=O)(O)O [SO42−]
coupled NADH oxidation assay with MtAPSK, pyrophosphatase, pyruvate kinase/lacta (MtATPS): activity of the recombinantly expressed MtATPS and MtAPSK was tested via a coupled assay

Compound: Nc1ncnc2c1ncn2[C@@H]1O[C@H](COP(=O)(O)OS(=O)(=O)O)[C@@H](OP(=O)(O)O)[C@H]1O [PAPS]
coupled assay, oxidation of reduced methyl viologen at 600 nm (MtPAPSR [6]): MtATPS, a pyrophosphatase and the MtAPSK were used to generate PAPS
